ChEMBL document CHEMBL3864168, “Imidazopyridazine Inhibitors of PI3Kβ” (ACS Med Chem Lett, 2016)
pIC50, pKd: −log10 of the molar value.

What was measured:
[1] = target: T1, Phosphatidylinositol 4,5-bisphosphate 3-kinase catalytic subunit beta isoform (Homo sapiens, UniProt P42338); test: Inhibition of PI3Kbeta in human PC3 cells assessed as suppression of AKT phosphorylation at Ser473 after 60 mins by ELISA; assay type: cell-based, PC-3
[2] = target: T2, Phosphatidylinositol 4,5-bisphosphate 3-kinase catalytic subunit delta isoform (Homo sapiens, UniProt O00329); test: Binding affinity to human PI3Kdelta (108 to 1044 residues) expressed in mammalian expression system by KINOMEscan assay
T2 sequence (O00329 whole entry): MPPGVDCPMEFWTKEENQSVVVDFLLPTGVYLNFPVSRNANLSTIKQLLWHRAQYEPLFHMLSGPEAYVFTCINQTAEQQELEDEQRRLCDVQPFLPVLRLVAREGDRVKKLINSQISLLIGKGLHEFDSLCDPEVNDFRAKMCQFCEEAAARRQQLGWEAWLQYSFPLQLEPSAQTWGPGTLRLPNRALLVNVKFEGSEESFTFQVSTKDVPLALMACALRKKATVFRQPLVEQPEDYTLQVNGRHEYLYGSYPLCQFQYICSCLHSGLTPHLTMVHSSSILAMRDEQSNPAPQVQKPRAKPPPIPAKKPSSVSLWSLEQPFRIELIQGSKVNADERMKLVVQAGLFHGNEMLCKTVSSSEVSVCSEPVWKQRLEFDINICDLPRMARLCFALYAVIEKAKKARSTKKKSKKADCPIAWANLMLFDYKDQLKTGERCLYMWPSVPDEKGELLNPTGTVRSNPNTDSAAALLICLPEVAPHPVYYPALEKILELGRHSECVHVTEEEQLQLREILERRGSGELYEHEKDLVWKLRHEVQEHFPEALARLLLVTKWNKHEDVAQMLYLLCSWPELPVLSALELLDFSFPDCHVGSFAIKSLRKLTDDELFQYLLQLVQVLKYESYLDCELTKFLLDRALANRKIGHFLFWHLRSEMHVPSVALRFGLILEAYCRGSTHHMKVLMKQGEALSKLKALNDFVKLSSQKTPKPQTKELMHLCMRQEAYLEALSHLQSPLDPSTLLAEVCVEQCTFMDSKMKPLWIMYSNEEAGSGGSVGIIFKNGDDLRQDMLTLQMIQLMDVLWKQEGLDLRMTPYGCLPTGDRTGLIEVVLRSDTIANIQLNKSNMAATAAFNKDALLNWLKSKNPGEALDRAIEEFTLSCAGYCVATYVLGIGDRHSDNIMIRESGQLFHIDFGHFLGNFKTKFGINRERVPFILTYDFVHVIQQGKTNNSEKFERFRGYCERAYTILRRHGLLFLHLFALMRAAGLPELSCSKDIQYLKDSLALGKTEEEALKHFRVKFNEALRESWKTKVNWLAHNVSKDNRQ

[3] = target: T1, Phosphatidylinositol 4,5-bisphosphate 3-kinase catalytic subunit beta isoform; test: Inhibition of PI3Kbeta in human PC3 cells assessed as suppression of AKT phosphorylation at Thr308 after 60 mins by ELISA; assay type: cell-based, PC-3
[4] = target: Phosphatidylinositol 4,5-bisphosphate 3-kinase catalytic subunit alpha isoform (Homo sapiens, UniProt P42336); test: Binding affinity to human PI3Kalpha (108 to 1068 residues) expressed in mammalian expression system by KINOMEscan assay
[5] = target: Phosphatidylinositol 4,5-bisphosphate 3-kinase catalytic subunit gamma isoform (Homo sapiens, UniProt P48736); test: Binding affinity to human PI3Kgamma (144 to 1102 residues) expressed in mammalian expression system by KINOMEscan assay
[6] = target: T1, Phosphatidylinositol 4,5-bisphosphate 3-kinase catalytic subunit beta isoform; test: Binding affinity to human PI3Kbeta (118 to 1070 residues) expressed in mammalian expression system by KINOMEscan assay
[7] = target: Serine/threonine-protein kinase mTOR (Homo sapiens, UniProt P42345); test: Binding affinity to human MTOR (1382 to 2549 residues) expressed in mammalian expression system by KINOMEscan assay

Sequence of Phosphatidylinositol 4,5-bisphosphate 3-kinase catalytic subunit alpha isoform (P42336 whole entry, the tested form may be a part, canonical isoform): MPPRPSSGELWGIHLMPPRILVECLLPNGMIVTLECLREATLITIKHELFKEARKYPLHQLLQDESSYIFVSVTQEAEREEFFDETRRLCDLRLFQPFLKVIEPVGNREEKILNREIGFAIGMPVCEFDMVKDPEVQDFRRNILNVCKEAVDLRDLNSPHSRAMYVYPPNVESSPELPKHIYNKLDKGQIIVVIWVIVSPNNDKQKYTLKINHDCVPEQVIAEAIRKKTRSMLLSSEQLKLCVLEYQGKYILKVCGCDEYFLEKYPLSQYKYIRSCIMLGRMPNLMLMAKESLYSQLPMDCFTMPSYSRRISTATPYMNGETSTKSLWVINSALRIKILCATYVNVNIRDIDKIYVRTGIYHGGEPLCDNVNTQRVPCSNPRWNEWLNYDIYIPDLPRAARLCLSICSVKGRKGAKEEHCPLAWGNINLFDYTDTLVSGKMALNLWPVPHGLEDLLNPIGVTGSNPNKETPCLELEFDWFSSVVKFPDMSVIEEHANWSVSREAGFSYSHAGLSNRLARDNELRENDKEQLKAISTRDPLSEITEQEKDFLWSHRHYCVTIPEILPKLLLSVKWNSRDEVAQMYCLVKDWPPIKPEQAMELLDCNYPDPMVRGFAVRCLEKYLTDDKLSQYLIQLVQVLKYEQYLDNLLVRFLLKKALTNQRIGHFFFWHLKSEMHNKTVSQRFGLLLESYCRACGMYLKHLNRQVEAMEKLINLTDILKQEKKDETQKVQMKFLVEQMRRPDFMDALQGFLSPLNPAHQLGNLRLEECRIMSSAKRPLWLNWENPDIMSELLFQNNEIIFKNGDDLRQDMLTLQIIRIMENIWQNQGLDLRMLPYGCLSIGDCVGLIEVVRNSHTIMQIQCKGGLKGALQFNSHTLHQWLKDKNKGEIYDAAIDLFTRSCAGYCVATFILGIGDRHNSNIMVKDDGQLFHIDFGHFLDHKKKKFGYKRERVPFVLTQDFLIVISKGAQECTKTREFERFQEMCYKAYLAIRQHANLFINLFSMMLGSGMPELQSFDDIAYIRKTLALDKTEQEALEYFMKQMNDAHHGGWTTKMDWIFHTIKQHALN
T1 sequence (P42338 whole entry, the tested form may be a part, canonical isoform): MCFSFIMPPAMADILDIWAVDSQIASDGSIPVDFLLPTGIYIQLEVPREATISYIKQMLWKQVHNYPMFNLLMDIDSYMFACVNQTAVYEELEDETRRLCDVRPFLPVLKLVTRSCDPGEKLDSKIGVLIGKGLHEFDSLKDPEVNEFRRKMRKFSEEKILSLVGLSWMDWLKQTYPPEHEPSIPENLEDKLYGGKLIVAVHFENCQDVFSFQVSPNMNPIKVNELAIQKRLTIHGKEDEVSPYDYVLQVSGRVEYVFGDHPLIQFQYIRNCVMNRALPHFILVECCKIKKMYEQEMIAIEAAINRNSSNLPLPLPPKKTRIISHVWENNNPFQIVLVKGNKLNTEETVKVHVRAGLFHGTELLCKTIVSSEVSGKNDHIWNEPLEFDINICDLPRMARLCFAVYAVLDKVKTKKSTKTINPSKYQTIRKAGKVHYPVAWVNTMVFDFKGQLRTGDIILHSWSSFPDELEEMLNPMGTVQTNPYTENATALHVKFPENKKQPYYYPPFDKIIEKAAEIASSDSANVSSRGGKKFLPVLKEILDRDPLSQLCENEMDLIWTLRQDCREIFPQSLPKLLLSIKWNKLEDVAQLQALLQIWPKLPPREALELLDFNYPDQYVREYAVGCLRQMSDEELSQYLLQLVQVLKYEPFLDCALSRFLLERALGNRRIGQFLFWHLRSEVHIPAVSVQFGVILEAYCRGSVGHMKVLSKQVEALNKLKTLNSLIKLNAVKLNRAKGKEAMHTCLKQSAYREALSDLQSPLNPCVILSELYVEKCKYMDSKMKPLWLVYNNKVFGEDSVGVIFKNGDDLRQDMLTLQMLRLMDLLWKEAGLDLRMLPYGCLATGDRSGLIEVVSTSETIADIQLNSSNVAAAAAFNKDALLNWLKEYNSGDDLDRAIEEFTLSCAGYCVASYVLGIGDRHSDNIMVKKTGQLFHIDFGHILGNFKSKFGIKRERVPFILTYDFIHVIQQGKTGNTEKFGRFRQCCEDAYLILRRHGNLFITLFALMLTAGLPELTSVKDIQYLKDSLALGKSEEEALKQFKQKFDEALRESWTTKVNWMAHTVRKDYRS
Sequence of Phosphatidylinositol 4,5-bisphosphate 3-kinase catalytic subunit gamma isoform (P48736 whole entry, the tested form may be a part, canonical isoform): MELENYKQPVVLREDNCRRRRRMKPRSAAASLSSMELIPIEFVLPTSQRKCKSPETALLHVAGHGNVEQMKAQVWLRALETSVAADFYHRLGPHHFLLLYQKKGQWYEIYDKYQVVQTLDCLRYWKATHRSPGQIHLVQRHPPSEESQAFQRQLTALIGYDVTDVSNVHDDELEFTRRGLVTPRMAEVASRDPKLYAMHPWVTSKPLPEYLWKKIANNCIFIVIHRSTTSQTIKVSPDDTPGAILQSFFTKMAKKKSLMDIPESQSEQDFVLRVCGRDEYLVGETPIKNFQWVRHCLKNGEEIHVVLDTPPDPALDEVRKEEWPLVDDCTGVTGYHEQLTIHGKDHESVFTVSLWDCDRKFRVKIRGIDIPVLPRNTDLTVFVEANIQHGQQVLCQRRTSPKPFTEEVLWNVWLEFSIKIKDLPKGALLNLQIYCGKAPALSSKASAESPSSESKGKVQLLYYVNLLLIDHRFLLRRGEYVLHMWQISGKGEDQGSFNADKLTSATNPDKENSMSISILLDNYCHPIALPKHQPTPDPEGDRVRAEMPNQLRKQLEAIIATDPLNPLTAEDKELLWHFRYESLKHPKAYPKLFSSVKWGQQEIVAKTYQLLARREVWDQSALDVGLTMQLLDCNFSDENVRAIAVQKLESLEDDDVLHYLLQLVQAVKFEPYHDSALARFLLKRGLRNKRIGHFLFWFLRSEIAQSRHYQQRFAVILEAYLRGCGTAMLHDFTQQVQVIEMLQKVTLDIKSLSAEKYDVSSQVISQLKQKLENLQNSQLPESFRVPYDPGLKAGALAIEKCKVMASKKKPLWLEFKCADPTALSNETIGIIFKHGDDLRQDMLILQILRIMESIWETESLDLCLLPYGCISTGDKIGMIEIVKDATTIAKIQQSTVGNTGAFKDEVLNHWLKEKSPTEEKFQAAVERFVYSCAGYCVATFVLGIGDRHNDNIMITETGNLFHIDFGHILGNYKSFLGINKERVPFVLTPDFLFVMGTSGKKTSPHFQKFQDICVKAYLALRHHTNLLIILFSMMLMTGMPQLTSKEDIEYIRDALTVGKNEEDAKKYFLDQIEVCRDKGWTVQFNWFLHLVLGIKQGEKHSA

SMILES | pIC50 [1] | pKd [2] | pIC50 [3] | pKd [4] | pKd [5] | pKd [6] | pKd [7]
Cc1c(Nc2c(CO)nc3c(N)cc(N4CCOC(CO)C4)nn23)cccc1C(F)(F)F (stereo in doubt; 66) | < 6.29 | 4.96 | 6.29 | < 4.52 | 4.87 | 6.86 | 5.86
Cc1c(Nc2c(CO)nc3c(N)cc(N4CCOC(CO)C4)nn23)cccc1C(F)(F)F (stereo in doubt; 65) | 7.10 | 6.86 | 7.37 | 5.18 | 6.16 | 8.89 | 6.45
Cc1nc2c(N)cc(N3CCOCC3)nn2c1Nc1cccc(C(F)(F)F)c1CN1CCN(C)CC1 | 7.68 | – | 7.77 | – | – | – | –
Cc1nc2c(-c3cnc[nH]3)cc(N3CCOCC3)nn2c1Nc1cccc(C(F)(F)F)c1CN1CC(O)C1 | 6.76 | – | 7.77 | – | – | – | –
Cc1nc2c(N)cc(N3CCOCC3)nn2c1Nc1cccc(C(F)(F)F)c1CN1CC(O)C1 | 7.36 | 7.14 | 7.48 | – | 4.71 | – | < 4.52
Cc1nc2c(-c3cnc[nH]3)cc(N3CCOCC3)nn2c1Nc1cccc(C(F)(F)F)c1C | 7.92 | 7.31 | 8.10 | 6.04 | 5.64 | 8.59 | 5.33
Cc1nc2c(-c3cnc[nH]3)cc(N3CCOCC3)nn2c1Cc1cccc(C(F)(F)F)c1C | 7.23 | – | 7.32 | – | – | – | –

Results, then the compound that gave them:

pIC50 [1] | pKd [2] | pIC50 [3] | pKd [4] | pKd [5] | pKd [6] | pKd [7] | SMILES
< 6.29 | – | < 6.29 | – | < 4.82 | – | – | Cc1c(Cc2c(CO)nc3c(C(=O)O)cc(N4CCOCC4)nn23)cccc1C(F)(F)F
7.34 | – | 7.42 | < 4.52 | < 5.00 | – | – | Cc1c(Cc2c(CO)nc3c(N)cc(N4CCOCC4)nn23)cccc1C(F)(F)F [listing 1 of 2 here]
6.29 | – | 6.50 | – | – | – | – | Cc1nc2c(C(=O)O)cc(N3CCOCC3)nn2c1Cc1cccc(C(F)(F)F)c1C
7.92 | 6.77 | 7.77 | 5.29 | 4.94 | 8.22 | 4.69 | Cc1nc2c(N)cc(N3CCOCC3)nn2c1Cc1cccc(C(F)(F)F)c1C
7.28 | – | 7.39 | – | – | – | – | Cc1c(Cc2c(CO)nc3c(N)cc(N4CCOCC4)nn23)cccc1C(F)(F)F [listing 2 of 2 here]
6.86 | – | 6.73 | – | < 4.52 | – | – | Cc1c(Cc2c(CNCCS(C)(=O)=O)nc3c(N)cc(N4CCOCC4)nn23)cccc1C(F)(F)F
6.30 | – | < 6.29 | < 4.52 | < 4.52 | – | < 4.52 | Cc1nc2c(C(N)=O)cc(N3CCOCC3)nn2c1Cc1cccc(C(F)(F)F)c1C
7.48 | 7.23 | 7.96 | < 4.52 | < 4.52 | 8.70 | < 4.52 | CC(=O)NCc1nc2c(-c3cnc[nH]3)cc(N3CCOCC3)nn2c1Cc1cccc(C(F)(F)F)c1C
7.47 | – | 7.39 | – | < 4.52 | – | – | Cc1c(Cc2c(CN(C)CCS(C)(=O)=O)nc3c(N)cc(N4CCOCC4)nn23)cccc1C(F)(F)F
